The assay deals with pathogenic bacteria. The experiment in a line: MIC by microdilution broth method (NCCLS M7-A4), in vitro antibacterial activity. Format: cell-based. The procedure, abridged:
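Broth microdilution per NCCLS M7-A4: two-fold serial dilutions in cation-adjusted Mueller-Hinton broth, inoculum about 5×10^4 CFU/well. Trays incubated 16–20 h at 35 °C. MIC read by comparing growth against no-compound growth controls.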
For orientation: In broth dilution the organism is exposed to a series of concentrations in liquid medium.

Setting [1] is: Staphylococcus aureus, Organism A: Staphylococcus aureus OC4172, read-out: MIC.
The mark [2] stands for this setting: Streptococcus pneumoniae, ATCC49619, Organism E: Streptococcus pneumoniae ATCC 49619, read-out: MIC.
Where [3] appears, read: Streptococcus pneumoniae, Organism B: fluoroquinolone-resistant clinical isolate of Streptococcus pneumoniae (QRDR amino acid substitutions).
Setting [4] is: Streptococcus pneumoniae, Organism C: fluoroquinolone-resistant clinical isolate of Streptococcus pneumoniae (QRDR amino acid substitutions).
Setting [5] is: Streptococcus pneumoniae, Organism D: fluoroquinolone-resistant clinical isolate of Streptococcus pneumoniae (QRDR amino acid substitutions).
Setting [6] is: Staphylococcus aureus, Organism A: Staphylococcus aureus OC4172.
Setting [7] is: Streptococcus pneumoniae, ATCC49619, Organism E: Streptococcus pneumoniae ATCC 49619.

Values after ≈ are worked out from the molar mass of the structure shown. Structures can show the parent of a compound that is named as a salt. Where two headings read alike, the source gives them in different places.

A word on the MIC: it is the least concentration at which growth counts as inhibited.

Take `C/C(CN)=C1\CCCN(c2nc3c(cc2F)c(=O)c(C(=O)O)cn3C2CC2)C1.O=C(O)C(F)(F)F` [Compound 297, (Z)-7-[3-(1-Amino-2-propylidene)-piperidin-1-yl]-1-cyclopropyl-6-fluoro-4-oxo-1,4-dihydro-[1,8]naphthyridine-3-carboxylic Acid Trifluoroacetic Acid Salt]: the MIC came to 0.25 µg/mL under setting [1]; 1 µg/mL under setting [2]; 16 µg/mL under setting [3]; 16 µg/mL under setting [4]; 16 µg/mL under setting [5].

For `Nc1nc(-n2cc(C(=O)O)c(=O)c3cc(F)c(N4CC(=C(F)CO)C4)c(Cl)c32)c(F)cc1F` [Compound 419, 1-(6-Amino-3,5-difluoro-pyridin-2-yl)-8-chloro-6-fluoro-7-[3-(1-fluoro-2-hydroxy-ethylidene)-azetidin-1-yl]-4-oxo-1,4-dihydro-quinoline-3-carboxylic acid], the MIC under setting [1] is at most 0.015 µg/mL; the MIC under setting [2] is at most 0.015 µg/mL; inhibition of growth under setting [3] (MIC) required 0.03 µg/mL (≈ 0.0619 µM); the lowest concentration to inhibit growth under setting [4] (MIC) was 0.25 µg/mL (≈ 0.516 µM); the minimal inhibitory concentration (MIC) under setting [5] stood at 0.06 µg/mL (≈ 0.124 µM).

For `CCOC(=O)OCC(F)=C1CCN(c2nc3c(cc2F)c(=O)c(C(=O)O)cn3C2CC2)CC1` [Compound 179, 1-Cyclopropyl-7-[4-(2-ethoxycarbonyloxy-1-fluoro-ethylidene)-piperidin-1-yl]-6-fluoro-4-oxo-1,4-dihydro-[1,8]naphthyridine-3-carboxylic acid], the MIC was 0.5 µg/mL (≈ 1.08 µM) under setting [1]; 2 µg/mL (≈ 4.32 µM) under setting [2]; above 16 µg/mL under setting [3]; above 16 µg/mL under setting [4]; above 16 µg/mL under setting [5].

As to `NC/C(F)=C1/CCCN(c2nc3c(cc2F)c(=O)c(C(=O)O)cn3C2CC2)C1` [Compound 253, (E)-7-[3-(2-Amino-1-fluoro-ethylidene)-piperidin-1-yl]-1-cyclopropyl-6-fluoro-4-oxo-1,4-dihydro-[1,8]naphthyridine-3-carboxylic acid trifluoroacetic acid salt], the MIC was 0.06 µg/mL under setting [6]; 0.5 µg/mL under setting [7]; 4 µg/mL under setting [3]; above 16 µg/mL under setting [4]; 4 µg/mL under setting [5].

As to `COc1c(N2CCC/C(=C(\F)CN)CC2)c(F)cc2c(=O)c(C(=O)O)cn(C3CC3)c12` [Compound 506, (E)-7-[4-(2-Amino-1-fluoro-ethylidene)-azepan-1-yl]-1-cyclopropyl-6-fluoro-8-methoxy-4-oxo-1,4-dihydro-quinoline-3-carboxylic acid], the MIC is at most 0.015 µg/mL under setting [1], 0.25 µg/mL (≈ 0.577 µM) under setting [2] and 2 µg/mL (≈ 4.61 µM) under setting [4].

As for `C[C@H]1COc2c(N3CCC/C(=C/CN)C3)c(F)cc3c(=O)c(C(=O)O)cn1c23` [Compound 402, (Z)-9-[3-(2-Amino-ethylidene)-piperidin-1-yl]-8-fluoro-(3S)-3-methyl-6-oxo-2,3-dihydro-6H-1-oxa-3a-aza-phenalene-5-carboxylic acid], the MIC reads like this: under setting [1], 0.25 µg/mL (≈ 0.645 µM); under setting [2], 2 µg/mL (≈ 5.16 µM); under setting [3], 16 µg/mL (≈ 41.3 µM); under setting [4], above 16 µg/mL; under setting [5], above 16 µg/mL.

`COc1c(N2CCC(=C(C#N)CN)CC2)c(F)cc2c(=O)c(C(=O)O)cn(C3CC3)c12` [Compound 433, 7-[4-(2-Amino-1-cyano-ethylidene)-piperidin-1-yl]-1-cyclopropyl-6-fluoro-8-methoxy-4-oxo-1,4-dihydro-quinoline-3-carboxylic Acid]: the MIC by setting is: under setting [1], at most 0.015 µg/mL; under setting [2], 0.12 µg/mL (≈ 0.281 µM); under setting [4], 0.5 µg/mL (≈ 1.17 µM); under setting [5], 0.5 µg/mL (≈ 1.17 µM).

As for `COc1c(N2CCC/C(=C(\F)CN)C2)c(F)cc2c(=O)c(C(=O)O)cn([C@@H]3C[C@@H]3F)c12` [Compound 405, (E)-7-[3-(2-Amino-1-fluoro-ethylidene)-piperidin-1-yl]-6-fluoro-(1R,2S)-1-(2-fluoro-cyclopropyl)-8-methoxy-4-oxo-1,4-dihydro-quinoline-3-carboxylic acid], the MIC under setting [1] is at most 0.015 µg/mL; the MIC under setting [2] is at most 0.25 µg/mL; the MIC under setting [3] was at most 0.12 µg/mL; the MIC under setting [4] is 0.25 µg/mL (≈ 0.572 µM); the MIC under setting [5] was 0.25 µg/mL (≈ 0.572 µM).

As to `N#C/C(CN)=C1/CCCN(c2nc3c(cc2F)c(=O)c(C(=O)O)cn3C2CC2)C1` [Compound 443, (Z)-7-[3-(2-Amino-1-cyano-ethylidene)-piperidin-1-yl]-1-cyclopropyl-6-fluoro-4-oxo-1,4-dihydro-[1,8]naphthyridine-3-carboxylic Acid], the MIC runs as follows: under setting [1], 0.5 µg/mL (≈ 1.26 µM); under setting [2], 8 µg/mL (≈ 20.1 µM); under setting [3], 8 µg/mL (≈ 20.1 µM); under setting [4], above 16 µg/mL; under setting [5], above 16 µg/mL.

With `O=C(O)c1cn(C2CC2)c2nc(N3CCC(=C(Cl)CN4CCNCC4)CC3)c(F)cc2c1=O` [Compound 292, 7-[4-(1-chloro-2-piperazin-1-yl-ethylidene)-piperidin-1-yl]-1-cyclopropyl-6-fluoro-4-oxo-1,4-dihydro-[1,8]naphthyridine-3-carboxylic Acid Trifluoroacetic Acid Salt], the MIC was 1 µg/mL under setting [6], 4 µg/mL under setting [7], above 16 µg/mL under setting [4] and 16 µg/mL under setting [5].

On to `CNCC(Cl)=C1CN(c2c(F)cc3c(=O)c(C(=O)O)cn(-c4nc(N)c(F)cc4F)c3c2Cl)C1` [Compound 360, 1-(6-Amino-3,5-difluoro-pyridin-2-yl)-8-chloro-7-[3-(1-chloro-2-methylamino-ethylidene)-azetidin-1-yl]-6-fluoro-4-oxo-1,4-dihydro-quinoline-3-carboxylic Acid], for which the MIC by setting is: under setting [1], 0.06 µg/mL (≈ 0.117 µM); under setting [2], 0.5 µg/mL (≈ 0.972 µM); under setting [3], 16 µg/mL (≈ 31.1 µM); under setting [4], 8 µg/mL (≈ 15.6 µM); under setting [5], 8 µg/mL (≈ 15.6 µM).

Regarding `COc1c(N2CCC/C(=C/CN)C2)c(F)cc2c(=O)c(C(=O)O)cn([C@@H]3C[C@@H]3F)c12` [Compound 408, (Z)-7-[3-(2-Amino-ethylidene)-piperidin-1-yl]-6-fluoro-(1R,2S)-1-(2-fluoro-cyclopropyl)-8-methoxy-4-oxo-1,4-dihydro-quinoline-3-carboxylic acid], the MIC under setting [1] was 0.03 µg/mL (≈ 0.0715 µM); the MIC under setting [2] stood at 0.25 µg/mL (≈ 0.596 µM); it took 1 µg/mL (≈ 2.38 µM) to inhibit growth under setting [3] (MIC); 2 µg/mL (≈ 4.77 µM) was the least that counted as inhibitory under setting [4] (MIC); the MIC under setting [5] was determined as 2 µg/mL (≈ 4.77 µM).

On to `C/C(CN)=C1\CCCN(c2c(F)cc3c(=O)c(C(=O)O)cn(-c4nc(N)c(F)cc4F)c3c2Cl)C1` [Compound 422, (Z)-1-(6-Amino-3,5-difluoro-pyridin-2-yl)-7-[3-(2-amino-1-methyl-ethylidene)-piperidin-1-yl]-8-chloro-6-fluoro-4-oxo-1,4-dihydro-quinoline-3-carboxylic acid], for which the MIC is 0.12 µg/mL (≈ 0.236 µM) under setting [1]; 1 µg/mL (≈ 1.97 µM) under setting [2]; above 16 µg/mL under setting [3]; above 16 µg/mL under setting [4]; above 16 µg/mL under setting [5].

Turning to `NC/C=C1/CCCN(c2c(F)cc3c(=O)c(C(=O)O)cn(C4CC4)c3c2OC(F)F)C1` [Compound 396, (Z)-7-[3-(2-Amino-ethylidene)-piperidin-1-yl]-1-cyclopropyl-8-difluoromethoxy-6-fluoro-4-oxo-1,4-dihydro-quinoline-3-carboxylic acid], the MIC runs as follows: under setting [1], 0.03 µg/mL (≈ 0.0686 µM); under setting [2], 0.25 µg/mL (≈ 0.572 µM); under setting [3], 2 µg/mL (≈ 4.57 µM); under setting [4], 4 µg/mL (≈ 9.14 µM); under setting [5], 0.5 µg/mL (≈ 1.14 µM).

Take `COc1c(N2CCC(=C(C)CN)CC2)c(F)cc2c(=O)c(C(=O)O)cn(C3CC3)c12` [Compound 6, 7-[4-(2-Amino-1-methyl-ethylidene)-piperidin-1-yl]-1-cyclopropyl-6-fluoro-8-methoxy-4-oxo-1,4-dihydro-quinoline-3-carboxylic acid]: the MIC by setting is: under setting [1], 0.03 µg/mL (≈ 0.0722 µM); under setting [2], 0.06 µg/mL (≈ 0.144 µM); under setting [4], 0.5 µg/mL (≈ 1.2 µM).

For `COc1c(N2CCC(=C(CN)CCO)CC2)c(F)cc2c(=O)c(C(=O)O)cn(C3CC3)c12` [Compound 201, 7-[4-(1-Aminomethyl-3-hydroxy-propylidene)-piperidin-1-yl]-1-cyclopropyl-6-fluoro-8-methoxy-4-oxo-1,4-dihydro-quinoline-3-carboxylic acid], the MIC came out at 0.12 µg/mL (≈ 0.269 µM) under setting [1], 0.5 µg/mL (≈ 1.12 µM) under setting [2], 2 µg/mL (≈ 4.49 µM) under setting [4] and 8 µg/mL (≈ 18 µM) under setting [5].

Consider `CCC(CN)=C1CCN(c2c(F)cc3c(=O)c(C(=O)O)cn(C4CC4)c3c2OC)CC1` [Compound 71, 7-[4-(1-Aminomethyl-propylidene)-piperidin-1-yl]-1-cyclopropyl-6-fluoro-8-methoxy-4-oxo-1,4-dihydro-quinoline-3-carboxylic acid], for which the MIC amounted to 0.03 µg/mL (≈ 0.0698 µM) under setting [1], 0.12 µg/mL (≈ 0.279 µM) under setting [2], 0.25 µg/mL (≈ 0.582 µM) under setting [4] and 0.5 µg/mL (≈ 1.16 µM) under setting [5].

In the case of `NC/C(Cl)=C1/CCCN(c2nc3c(cc2F)c(=O)c(C(=O)O)cn3C2CC2)C1` [Compound 254, (E)-7-[3-(2-Amino-1-chloro-ethylidene)-piperidin-1-yl]-1-cyclopropyl-6-fluoro-4-oxo-1,4-dihydro-[1,8]naphthyridine-3-carboxylic acid], the MIC is, setting by setting: under setting [1], 0.06 µg/mL (≈ 0.147 µM); under setting [2], 0.25 µg/mL (≈ 0.614 µM); under setting [4], 4 µg/mL (≈ 9.83 µM); under setting [5], 4 µg/mL (≈ 9.83 µM).

`NC/C=C1\CCCN(c2cc3c(cc2F)c(=O)c(C(=O)O)cn3C2CC2)C1` [Compound 384, (E)-7-[3-(2-Amino-ethylidene)-piperidin-1-yl]-1-cyclopropyl-6-fluoro-4-oxo-1,4-dihydro-quinoline-3-carboxylic acid]: the MIC is 1 µg/mL (≈ 2.69 µM) under setting [1], 8 µg/mL (≈ 21.5 µM) under setting [2], above 16 µg/mL under setting [4] and above 16 µg/mL under setting [5].

The record behind these values is US20090156577A1, “7-AMINO ALKYLIDENYL-HETEROCYCLIC QUINOLONES AND NAPHTHYRIDONES” (priority 2004, published 2009).
